Patent US12599672B2, “KRAS proteolysis targeting chimeras” (PAQ Therapeutics Inc., priority 2023, dated 2026)

Legend:
Assay type in all cases: cell-based
[1] = molecular target: T1, KRAS (Homo sapiens, UniProt P01116); assay: KRASamp MSD assay; conditions: KE39 (KRAS amplified) cells, treated with test compounds for 24 hr, MSD readout of KRAS degradation
T1 construct: endogenous in cells; host or cells: KE39 (KRAS amplified) cells
Procedure: KE39 (KRAS amplified) cells were cultured in RPMI 1640 medium (Gibco, 11875093), seeded into 96 well plate and treated with test compounds for 24 hr. The cells were washed with PBS and lysed in plate for 1 hr at 4° C. with agitation in RIPA buffer (Cat No. BP-115D) supplemented with protease and phosphatase inhibitor cocktail. The lysates were loaded into MSD plate coated with KRAS capture antibody (LSBio, C175665, 1:1000) for 1 h at RT with agitation. The plate was then washed three times with TBST and incubated with KRAS detection antibody (Abcam, Ab275876. 1:2000) for 1 h at RT. After washing three times with TBST, the plate was incubated with secondary detection antibody GAR (1:500) for 1 hr at RT followed with 3×TBST washing. 2×MSD reading buffer was added into individual wells and the plate was finally read by MSD reader (MSD, SQ 120 MM). The recombinant WT KRAS protein was used for standard curve generation and protein quantification. The degradation activity was calculated using the following formula: […]
DC50 was calculated by fitting the curve using GraphPad Prism v8.0.2 (analysis 263): […]

[2] = molecular target: T2, KRAS G12D (Homo sapiens, UniProt P01116, G12D); assay: KRAS G12D HiBit assay; conditions: AsPc-1-KRAS (G12D)-HiBit-KI cell, compound treatment for 24 hours; for DC50: absolute DC50
T2 construct: AsPc-1-KRAS (G12D)-HiBit-KI cell (Pharmaron); host or cells: AsPc-1-KRAS (G12D)-HiBit-KI cells (HiBiT knock-in at the endogenous KRAS locus)
T2 sequence (P01116 1-188 isoform P01116-2 G12D): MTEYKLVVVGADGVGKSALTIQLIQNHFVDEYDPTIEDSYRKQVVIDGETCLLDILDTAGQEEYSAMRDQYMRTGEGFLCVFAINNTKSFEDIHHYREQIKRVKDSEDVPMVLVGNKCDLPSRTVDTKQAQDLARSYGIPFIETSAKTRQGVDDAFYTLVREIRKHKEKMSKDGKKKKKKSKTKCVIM
Summary of the method: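 Cells were treated for 24 h with compounds in a 3-fold, 10-point dilution series from a 0.3 mM DMSO stock, then equilibrated 15 min at room temperature. KRAS G12D HiBiT levels were read by luminescence after lytic Nano-Glo HiBiT reagent with LgBiT; inhibition calculated relative to 0.1% DMSO high control.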

[3] = molecular target: T3, KRAS G12V (Homo sapiens, UniProt P01116, G12V); assay: KRAS G12V HiBit assay; conditions: SW620-KRAS (G12V)-HiBit-KI cells, compound treatment for 24 hours, class symbols
T3 construct: SW620-KRAS (G12V)-HiBit-KI cell (Pharmaron); host or cells: SW620-KRAS (G12V)-HiBit-KI cells (HiBiT knock-in at the endogenous KRAS locus)
T3 sequence (P01116 1-188 isoform P01116-2 G12V): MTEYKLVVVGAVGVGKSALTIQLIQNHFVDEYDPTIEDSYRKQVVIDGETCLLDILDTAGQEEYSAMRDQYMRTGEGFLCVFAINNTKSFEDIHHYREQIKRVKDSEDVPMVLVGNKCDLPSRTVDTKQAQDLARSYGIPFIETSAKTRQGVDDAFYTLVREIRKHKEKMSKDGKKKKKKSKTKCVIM
Summary of the method: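 HiBiT-tagged KRAS G12V cells treated 24 h with compound in a 3-fold, 10-point series (0.3 mM DMSO stock); lytic HiBiT reagent with LgBiT added after 15 min room-temperature equilibration. Degradation calculated against 0.1% DMSO high control.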

T1 sequence (P01116 1-188 isoform P01116-2): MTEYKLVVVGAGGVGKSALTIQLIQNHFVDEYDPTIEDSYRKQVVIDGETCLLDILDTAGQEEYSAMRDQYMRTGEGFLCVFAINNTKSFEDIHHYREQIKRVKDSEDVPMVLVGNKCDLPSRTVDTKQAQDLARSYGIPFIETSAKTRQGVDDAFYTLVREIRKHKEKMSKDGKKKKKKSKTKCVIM

Row | Compound | DC50 [1] | DC50 ([2]; class symbols) | DC50 [3] | Dmax ([2]; class symbols) | DC50 ([2]; numeric bounds given in place of class symbols) | Average Dmax ([2]; class symbols)
1 | CCc1c(F)ccc2cc(O)cc(-c3ncc4c(N5CCC[C@@](C)(O)C5)nc(OC[C@@]56CCCN5[C@H](COC(=O)N5CCC(CN7CCC(c8ccc9c(c8)n(C)c(=O)n9C8CCC(=O)NC8=O)CC7)CC5)CC6)nc4c3F)c12 (stereo partly drawn) [Compound 1, [(3S,8S)-8-[[7-(8-Ethyl-7-fluoro-3-hydroxy-1-naphthyl)-8-fluoro-4-[(3R)-3-hydroxy-3-methyl-1-piperidyl]pyrido[4,3-d]pyrimidin-2-yl]oxymethyl]-1,2,3,5,6,7-hexahydropyrrolizin-3-yl]methyl 4-[[4-[1-(2,6-dioxo-3-piperidyl)-3-methyl-2-oxo-benzimidazol-5-yl]-1-piperidyl]methyl]piperidine-1-carboxylate] | < 1 nM | < 100 nM | < 10 nM |  |  | A (Dmax greater than 50%)
2 | C#Cc1c(F)ccc2cc(O)cc(-c3ncc4c(N5CCC[C@@](C)(O)C5)nc(OC[C@@]56CCCN5[C@H](COC(=O)N5CCC(CN7CCC(c8ccc9c(c8)n(C)c(=O)n9C8CCC(=O)NC8=O)CC7)CC5)CC6)nc4c3F)c12 (stereo partly drawn) [Compound 4, [(3S,8S)-8-[[7-(8-Ethynyl-7-fluoro-3-hydroxy-1-naphthyl)-8-fluoro-4-[(3R)-3-hydroxy-3-methyl-1-piperidyl]pyrido[4,3-d]pyrimidin-2-yl]oxymethyl]-1,2,3,5,6,7-hexahydropyrrolizin-3-yl]methyl4-[[4-[1-(2,6-dioxo-3-piperidyl)-3-methyl-2-oxo-benzimidazol-5-yl]-1-piperidyl]methyl]piperidine-1-carboxylate] | < 1 nM | < 100 nM | < 10 nM |  |  | A (Dmax greater than 50%)
3 | C#Cc1c(F)ccc2cc(O)cc(-c3ncc4c(N5CCC[C@@](C)(O)C5)nc(OCC5(CN6CCN(CC7CCN(c8ccc9c(c8)n(C)c(=O)n9C8CCC(=O)NC8=O)CC7)CC6)CC5)nc4c3F)c12 (stereo partly drawn) [Compound 14, 3-[5-[4-[[4-[[1-[[7-(8-Ethynyl-7-fluoro-3-hydroxy-1-naphthyl)-8-fluoro-4-[(3R)-3-hydroxy-3-methyl-1-piperidyl]pyrido[4,3-d]pyrimidin-2-yl]oxymethyl]cyclopropyl]methyl]piperazin-1-yl]methyl]-1-piperidyl]-3-methyl-2-oxo-benzimidazol-1-yl]piperidine-2,6-dione] | < 1 nM | < 100 nM | < 10 nM | > 50% |  | 
4 | C#Cc1c(F)ccc2cccc(-c3ncc4c(N5CCC[C@@](C)(O)C5)nc(OCC5(CN6CC7(C6)CN(c6ccc8c(c6)n(C)c(=O)n8C6CCC(=O)NC6=O)C7)CC5)nc4c3F)c12 (stereo partly drawn) [Compound 31] | ≥ 10 nM | > 300 nM | > 100 nM |  |  | 
5 | C#Cc1c(F)ccc2cc(O)cc(-c3ncc4c(N5CCC[C@@](C)(O)C5)nc(OC[C@@]56CCCN5[C@H](COC(=O)N5CCC(C7CCN(c8ccc9c(c8)n(C)c(=O)n9C8CCC(=O)NC8=O)CC7)CC5)CC6)nc4c3F)c12 (stereo partly drawn) [Compound 32] | 1 to 10 nM |  |  |  | > 100 nM | 
6 | C#Cc1c(F)ccc2cccc(-c3ncc4c(N5CCC[C@@](C)(O)C5)nc(OCC5(CN6CCC7(CC6)CN(c6ccc8c(c6)n(C)c(=O)n8C6CCC(=O)NC6=O)C7)CC5)nc4c3F)c12 (stereo partly drawn) [Compound 40] | ≥ 10 nM | > 300 nM | > 100 nM |  |  | 
7 | C#Cc1c(F)ccc2cc(O)cc(-c3ncc4c(N5CCC[C@@](C)(O)C5)nc(OCC5(CN6CCC7(CC6)CCN(c6ccc8c(c6)n(C)c(=O)n8C6CCC(=O)NC6=O)CC7)CC5)nc4c3F)c12 (stereo partly drawn) [Compound 52] | ≥ 10 nM | < 100 nM | < 10 nM |  |  | 
8 | C#Cc1c(F)ccc2cc(O)cc(-c3ncc4c(N5CCC[C@@](C)(O)C5)nc(OCC5(CN6CCC7(CC6)CC(N6CCN(c8ccc9c(c8)n(C)c(=O)n9C8CCC(=O)NC8=O)CC6)C7)CC5)nc4c3F)c12 (stereo partly drawn) [Compound 56] | < 1 nM | < 100 nM | < 10 nM |  |  | 
9 | C#Cc1c(F)ccc2cc(O)cc(-c3ncc4c(N5CCC[C@@](C)(O)C5)nc(OCC5(CN6CCC7(CC6)CCN(c6cccc8c6n(C)c(=O)n8C6CCC(=O)NC6=O)CC7)CC5)nc4c3F)c12 (stereo partly drawn) [Compound 67] | 1 to 10 nM | < 100 nM | < 10 nM |  |  | 
10 | CCc1c(F)ccc2cc(O)cc(-c3ncc4c(N5CCC[C@@](C)(O)C5)nc(OC[C@@]56CCCN5[C@H](CN(C)C(=O)c5ccc(CN7CCC(c8ccc9c(c8)n(C)c(=O)n9C8CCC(=O)NC8=O)CC7)cc5)CC6)nc4c3F)c12 (stereo partly drawn) [Compound 503, 4-((4-(1-(2,6-dioxopiperidin-3-yl)-3-methyl-2-oxo-2,3-dihydro-1H-benzo[d]imidazol-5-yl)piperidin-1-yl)methyl)-N-(((3S,7aS)-7a-(((7-(8-ethyl-7-fluoro-3-hydroxynaphthalen-1-yl)-8-fluoro-4-((R)-3-hydroxy-3-methylpiperidin-1-yl)pyrido[4,3-d]pyrimidin-2-yl)oxy)methyl)hexahydro-1H-pyrrolizin-3-yl)methyl)-N-methylbenzamide] |  | < 100 nM | < 10 nM |  |  | 

Continued, in another order:

Row | DC50 [1] | DC50 ([2]; class symbols) | DC50 [3] | Dmax ([2]; class symbols) | DC50 ([2]; numeric bounds given in place of class symbols) | Compound | Average Dmax ([2]; class symbols)
11 | < 1 nM | < 100 nM | < 10 nM | > 50% |  | CCc1c(F)ccc2cc(O)cc(-c3ncc4c(N5CCC[C@@](C)(O)C5)nc(OC[C@@]56CCCN5[C@H](COC(=O)N5CCC(OCCCc7cccc8c7n(C)c(=O)n8C7CCC(=O)NC7=O)CC5)CC6)nc4c3F)c12 (stereo partly drawn) [Compound 2, [(3S,8S)-8-[[7-(8-Ethyl-7-fluoro-3-hydroxy-1-naphthyl)-8-fluoro-4-[(3R)-3-hydroxy-3-methyl-1-piperidyl]pyrido[4,3-d]pyrimidin-2-yl]oxymethyl]-1,2,3,5,6,7-hexahydropyrrolizin-3-yl]methyl4-[3-[1-(2,6-dioxo-3-piperidyl)-3-methyl-2-oxo-benzimidazol-4-yl]propoxy]piperidine-1-carboxylate] | 
12 | 1 to 10 nM | > 300 nM | < 10 nM |  |  | C#Cc1c(F)ccc2cc(O)cc(-c3ccc4c(N5CCC[C@@](C)(O)C5)nc(OCC5(CN6CCN(CC7CCN(c8ccc9c(c8)n(C)c(=O)n9C8CCC(=O)NC8=O)CC7)CC6)CC5)nc4c3F)c12 (stereo partly drawn) [Compound 11] | 
13 | < 1 nM | < 100 nM | < 10 nM |  |  | C#Cc1c(F)ccc2cc(O)cc(-c3ccc4c(N5CCC[C@@](C)(O)C5)nc(OCC5(CN6CCC(CN7CCC(c8ccc9c(c8)n(C)c(=O)n9C8CCC(=O)NC8=O)CC7)CC6)CC5)nc4c3F)c12 (stereo partly drawn) [Compound 13] | 
14 | ≥ 10 nM | 100 to 300 nM | > 100 nM | > 50% |  | C#Cc1c(F)ccc2cc(O)cc(-c3ncc4c(N5CCCCC5)nc(OCC5(CN6CCN(CC7CCN(c8ccc9c(c8)n(C)c(=O)n9C8CCC(=O)NC8=O)CC7)CC6)CC5)nc4c3F)c12 (stereo not drawn) [Compound 15] | 
15 | < 1 nM | < 100 nM | < 10 nM |  |  | CCc1c(F)ccc2cc(O)cc(-c3ncc4c(N5CCC[C@@](C)(O)C5)nc(OCC5(CN6CCN(CC7CCN(c8ccc9c(c8)n(C)c(=O)n9C8CCC(=O)NC8=O)CC7)CC6)CC5)nc4c3F)c12 (stereo partly drawn) [Compound 34] | 
16 | 1 to 10 nM | < 100 nM | < 10 nM |  |  | C#Cc1c(F)ccc2cc(O)cc(-c3ncc4c(N5CCC[C@@](C)(O)C5)nc(OCC5(CN6CCN(CC7CCN(c8ccc9c(c8)C(=O)N(C8CCC(=O)NC8=O)C9=O)CC7)CC6)CC5)nc4c3F)c12 (stereo partly drawn) [Compound 50] | 
17 | ≥ 10 nM | < 100 nM | > 100 nM |  |  | C#Cc1c(F)ccc2cccc(-c3ncc4c(N5CCC[C@@](C)(O)C5)nc(OCC5(CN6CCN(CC7CCN(c8ccc9c(c8)C(=O)N(C8CCC(=O)NC8=O)C9=O)CC7)CC6)CC5)nc4c3F)c12 (stereo partly drawn) [Compound 55] | 
18 | ≥ 10 nM | < 100 nM | < 10 nM |  |  | C#Cc1c(F)ccc2cc(O)cc(-c3ncc4c(N5CCC[C@@](C)(O)C5)nc(OCC5(CN6CCC(N7CCC(c8ccc9c(C%10CCC(=O)NC%10=O)nn(C)c9c8)CC7)CC6)CC5)nc4c3F)c12 (stereo partly drawn) [Compound 58] | 
19 | < 1 nM | < 100 nM | < 10 nM |  |  | C#Cc1c(F)ccc2cc(O)cc(-c3ncc4c(N5CCC[C@@](C)(O)C5)nc(OCC5(CN6CCC7(CC6)CC(N6CCC(c8cccc9c8n(C)c(=O)n9C8CCC(=O)NC8=O)CC6)C7)CC5)nc4c3F)c12 (stereo partly drawn) [Compound 64] | 
